A short description of data set [1]: Selectivity index, ratio of IC50 for African green monkey Vero cells to MIC for Mycobacterium tuberculosis H37Rv. To be noted: read-out: Selectivity Index. The format is toxicity, cell-based.
For data set [2], the system named is Mycobacterium tuberculosis. The data set is described as follows: Antitubercular activity against Mycobacterium tuberculosis H37Rv assessed as inhibition of cell growth after 5 days by microplate alamar blue assay. Type of data set: functional. Conditions: 120 h. (In general: The colour change of resazurin is a common sign of viable cells or microbes.)
Data set [3] has as its system Staphylococcus aureus. The data set is described as follows: Antibacterial activity against Staphylococcus aureus assessed as zone of inhibition at 75 ug/ml incubated for 18-24 hrs at 37 degC by disc diffusion method. The format is functional. To be noted: read-out: IZ. (In general: Agar diffusion results depend on both activity and mobility in agar.)
Data set [4] has as its system Pseudomonas aeruginosa. Kind of data set: Antibacterial activity against Pseudomonas aeruginosa assessed as zone of inhibition at 75 ug/ml incubated for 18-24 hrs at 37 degC by disc diffusion method. Conditions: read-out: IZ. Type of data set: functional.
The subject of data set [5] is Staphylococcus aureus. The data set is described as follows: Antibacterial activity against Staphylococcus aureus assessed as zone of inhibition at 50 ug/ml incubated for 18-24 hrs at 37 degC by disc diffusion method. The format is functional. Conditions: read-out: IZ.
The subject of data set [6] is Pseudomonas aeruginosa. Kind of data set: Antibacterial activity against Pseudomonas aeruginosa assessed as zone of inhibition at 50 ug/ml incubated for 18-24 hrs at 37 degC by disc diffusion method. To be noted: read-out: IZ. The format is functional.
For the next data set, the system named is Vero. The data set is described as follows: Cytotoxicity against African green monkey Vero cells assessed as growth inhibition after 3 days by MTT assay. Type of data set: cell-based. To be noted: Chlorocebus sabaeus, 72 h. (In general: Formazan colour is commonly taken as a measure of viable cells.)
For data set [7], the system named is Escherichia coli. Kind of data set: Antibacterial activity against Escherichia coli assessed as zone of inhibition at 75 ug/ml incubated for 18-24 hrs at 37 degC by disc diffusion method. The format is functional. To be noted: read-out: IZ.
The nature of data set [8]: Cytotoxicity against African green monkey Vero cells assessed as growth inhibition at 62.5 ug/ml after 3 days by MTT assay. To be noted: chlorocebus sabaeus, read-out: GI. The format is cell-based.
For data set [9], the system named is Escherichia coli. The data set is described as follows: Antibacterial activity against Escherichia coli assessed as zone of inhibition at 50 ug/ml incubated for 18-24 hrs at 37 degC by disc diffusion method. Type of data set: functional. To be noted: read-out: IZ.

In brackets after ≈: the same amount, converted by molar mass. Where only a bound is given, the exact number is not on record here.

Consider 1 compound from ChEMBL document CHEMBL3734717, “New INH-pyrazole analogs: Design, synthesis and evaluation of antitubercular and antibacterial activity” (Bioorg Med Chem Lett, 2015).

A word on the MIC: it is the lowest concentration found to suppress growth. One may read the IC50 as the concentration needed to halve the response being measured.

`O=C(c1ccncc1)N(/N=C/c1c[nH]nc1-c1cccc(Cl)c1)C(=O)c1ccc(F)cc1`: the selectivity ratio in data set [1] is above 625. Besides, the MIC in data set [2] stood at 3.6 µM (≈ 1.61 µg/mL). Besides, the zone of inhibition at 75 µg/mL turned out to be 16 mm with Staphylococcus aureus [3], 17 mm with Pseudomonas aeruginosa [4] and 14 mm in the data set on Escherichia coli [7]. Besides, the zone of inhibition at 50 µg/mL with Staphylococcus aureus [5] was determined as 13 mm; with Pseudomonas aeruginosa [6] it was 13 mm; in the data set on Escherichia coli [9], 12 mm. Further, the IC50 in the data set on Vero is above 1000 µg/mL. For the same compound, the inhibition at 72 h, 62.5 ug/ml in data set [8] is 17.8%.
